{"source": "patent US7727736B2", "about": "“Soluble phospholipids for use in clotting factor assays” (The University of North Carolina at Chapel Hill, priority 2003, dated 2010)", "key": {"FXa [1]": {"molecular_target": "T1, FXa (Homo sapiens, UniProt P00742)", "T1 sequence (P00742 41-179 limits assumed)": "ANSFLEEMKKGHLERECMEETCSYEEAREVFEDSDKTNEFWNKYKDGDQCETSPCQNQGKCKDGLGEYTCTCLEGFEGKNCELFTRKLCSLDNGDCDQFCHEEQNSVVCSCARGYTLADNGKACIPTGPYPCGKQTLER", "T1 sequence (P00742 235-488 limits assumed)": "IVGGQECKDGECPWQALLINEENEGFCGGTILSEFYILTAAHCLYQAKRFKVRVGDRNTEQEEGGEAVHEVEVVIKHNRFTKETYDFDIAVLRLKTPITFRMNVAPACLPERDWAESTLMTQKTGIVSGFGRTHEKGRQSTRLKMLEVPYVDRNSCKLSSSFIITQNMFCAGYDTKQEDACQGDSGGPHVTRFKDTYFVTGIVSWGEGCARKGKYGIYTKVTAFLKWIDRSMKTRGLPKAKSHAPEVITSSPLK", "T1 sequence (P12259 29-737 partner limits assumed)": "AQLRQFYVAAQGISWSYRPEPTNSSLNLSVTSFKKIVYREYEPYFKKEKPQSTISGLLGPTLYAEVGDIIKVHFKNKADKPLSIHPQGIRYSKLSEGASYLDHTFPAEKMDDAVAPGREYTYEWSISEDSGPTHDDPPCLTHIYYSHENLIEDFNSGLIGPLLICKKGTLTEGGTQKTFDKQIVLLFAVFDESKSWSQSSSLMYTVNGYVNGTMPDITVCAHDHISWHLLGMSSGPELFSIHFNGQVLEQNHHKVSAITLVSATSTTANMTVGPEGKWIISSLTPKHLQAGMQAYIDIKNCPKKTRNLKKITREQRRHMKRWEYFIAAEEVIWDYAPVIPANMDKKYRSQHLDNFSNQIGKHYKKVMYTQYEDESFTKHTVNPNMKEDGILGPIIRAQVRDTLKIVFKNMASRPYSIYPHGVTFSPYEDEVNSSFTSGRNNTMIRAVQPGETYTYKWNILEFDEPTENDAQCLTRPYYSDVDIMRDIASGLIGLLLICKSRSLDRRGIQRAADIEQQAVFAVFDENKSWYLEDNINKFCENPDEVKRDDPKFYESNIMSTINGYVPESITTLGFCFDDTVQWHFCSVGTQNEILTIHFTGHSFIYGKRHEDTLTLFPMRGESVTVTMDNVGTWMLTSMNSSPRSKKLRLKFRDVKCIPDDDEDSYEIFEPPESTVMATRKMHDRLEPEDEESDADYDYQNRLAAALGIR", "T1 sequence (P12259 1574-2224 partner limits assumed)": "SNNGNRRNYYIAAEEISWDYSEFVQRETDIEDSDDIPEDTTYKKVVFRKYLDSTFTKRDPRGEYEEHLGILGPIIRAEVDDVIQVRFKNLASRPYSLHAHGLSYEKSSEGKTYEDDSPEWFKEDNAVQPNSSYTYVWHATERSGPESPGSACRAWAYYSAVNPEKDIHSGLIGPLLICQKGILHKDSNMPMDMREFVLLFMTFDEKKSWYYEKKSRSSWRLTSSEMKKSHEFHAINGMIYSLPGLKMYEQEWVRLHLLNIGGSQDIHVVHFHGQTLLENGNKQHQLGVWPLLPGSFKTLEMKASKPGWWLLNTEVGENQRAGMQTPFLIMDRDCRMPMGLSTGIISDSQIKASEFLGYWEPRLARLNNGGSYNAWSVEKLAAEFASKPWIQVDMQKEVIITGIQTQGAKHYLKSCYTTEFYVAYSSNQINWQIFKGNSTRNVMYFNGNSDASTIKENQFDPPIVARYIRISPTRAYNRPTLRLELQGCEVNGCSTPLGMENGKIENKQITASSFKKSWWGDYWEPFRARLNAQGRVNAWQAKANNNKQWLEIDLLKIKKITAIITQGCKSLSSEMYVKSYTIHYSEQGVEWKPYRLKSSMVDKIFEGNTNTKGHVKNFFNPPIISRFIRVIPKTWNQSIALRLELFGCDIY", "experiment": "Influence of DAPA on FXa activity in prothrombin activation", "type": "biochemical", "design": "Human prothrombin and factor Xa; purchased Hematologic Technologies Inc. (factor Xa); factor Va from human plasma, in house", "settings": "in the presence of C6PS, concentration of DAPA used herein", "experimental": "Despite this, it has been shown that it provides rates of prothrombin activation in the presence of PS/PC membranes equivalent to those detected by activity measurements (Wu, et al. (2002) supra; Weinreb, et al. (2003) supra). To test whether DAPA influenced the activity of FXa in the presence of C6PS, the expected DAPA fluorescence was calculated based on the rate of appearance of thrombin and MzIIa, as detected by synthetic substrate assay as recorded in FIG. 6A. This calculation has been described (Wu, et al. (2002) supra) and its results, as applied to the data herein, are shown in the inset to FIG. 6A (filled circles) along with an experimental time-course of DAPA fluorescence change (open diamonds) reflecting prothrombin activation. Similar results were obtained at the other prothrombin concentrations examined."}, "FXa [2]": {"molecular_target": "T1, FXa", "design": "Human prothrombin and factor Xa; purchased Hematologic Technologies Inc. (factor Xa); factor Va from human plasma, in house", "settings": "Nesheim et al. (1979); cited from earlier work"}}, "data": [{"smiles": "CCC1CCN(C(=O)C(CCCN=C(N)N)NS(=O)(=O)c2cccc3c(N(C)C)cccc23)CC1", "note": "(centres unmarked) [DAPA, dansylarginine-N-(3-ethyl-1,5-pentanediyl) amide]", "values": [{"measurement": "influence of DAPA on FXa activity", "setting": "FXa [1]", "value": "does not influence FXa activity to a measurable extent"}, {"measurement": "inhibition of FXa by DAPA", "setting": "FXa [2]", "value": "weak competitive inhibitor"}]}]}
